Measured values reported in US8598383B2, “Pharmaceutical composition for treating or preventing degenerative and inflammatory diseases” (Neurotech Pharmaceuticals Co., Ltd., priority 2006, dated 2013).

Legend:
[1] = system: collagen-induced arthritis; experiment: Collagen-induced arthritis model (arthritic index); assay type: in vivo, mouse; conditions: 25 mg/kg/day intraperitoneal
Description: FIG. 15 is results showing efficacy through arthritis animal model induced by collagen. 25 mg/kg of compound 2, 3 or 18, or methotrexate (control, MTX, 1 mg/kg/week) was intraperitoneally injected after administration of collagen.
FIG. 16 is results showing efficacy of compounds 6 and 11 through arthritis animal model induced by collagen. Collagen was intradermally injected two times with 2 week-interval. One week later, compound 6, compound 11 and methotrexate (control) were intraperitoneally injected. Then, the animals were observed everyday for 2-3 weeks, and results was evaluated by arthritis index.
To evaluate the efficacy of the 2-hydroxybenzoic acid derivative, collagen-induced arthritis model (rheumarthritis animal model) was used. Bovine type II collagen was mixed with complete Freund's adjuvant to make an emulsion, and the emulsion was intradermally injected into the origin site of 8˜10 week-old DBA/1LacJ mouse tail. Intradermal boosting was performed by the same method 2 weeks later. 25 mg/kg/day of compounds 2, 3 and 18, 1 mg/kg/week of methotrexate (comparative example) or 10% vehicle (control) were intraperitoneally injected one week after the second intradermal injection of collagen (FIG. 15). Pictures of foot edema of normal rat (sham), collagen-administered rat (collagen) and compound 18-administered rat (compound 18, 25 mg/kg/day injection) were shown in FIG. 14.
In addition, 50 mg/kg/day of compounds 6 and 11, and 5 mg/kg/2 days of methotrexate (comparative example) were intraperitoneally injected. Phosphate buffered saline was injected as control (FIG. 16). For 2˜3 weeks, the degree of arthritis was observed everyday, and the result was evaluated according to the below arthritic index using edema.
4 paws were evaluated as from 0 to 4 point, Total points: 16

[2] = system: TNF-alpha gene expression in BV2 cell line; experiment: Suppressing effect on gene expression (RT-PCR), TNF-alpha; assay type: cell-based; conditions: gene expression vs LPS control, BV2, 24 hours
Description: (§1) Effects of the 2-hydroxybenzoic acid derivatives on iNOS gene expression in BV2 cell line were evaluated. 100 mm dish was inoculated with 1×10^6 cells of BV2 cell line, and treated with both LPS, inflammation-inducing material, and 1˜100 uM of the 2-hydroxybenzoic acid derivative of the present invention, together, in regular concentration interval. After 24 hours of incubation, RNA was extracted. Extracted RNA was used in reverse transcription and polymerase chain reaction, and expression patterns of TNF-alpha, IL-1beta and iNOS were compared.

[3] = system: TNF-alpha in exudation of air pouch; experiment: Zymosan air pouch inflammation model, TNF-alpha (ELISA); assay type: in vivo; conditions: over 30 mg/kg, once oral 1 hour before zymosan, 4 hours later
Description: (§2) FIG. 12 is results showing efficacy of compound 2 through the levels of TNF-alpha induced by zymosan, one of arthritis animal models. 1% zymosan was administered with air pouch, and compound 2 was once orally administered according to indicated dose 1 hour before administration of zymosan. The level of TNF-alpha in an exudation of air pouch was evaluated by ELISA method 4 hours later.
(§3) Anti-inflammation effect of compound 2 in arthritis model was evaluated with zymosan. 0.5 ml of 1% zymosan was administered with air pouch, and 3-300 mg/kg of compound 2 was once orally administered 1 hour before administration of zymosan. Edema, a main symptom of arthritis, and the level of cytokine were observed 4 hours later.

[4] = system: IL-6 production in BV2 cell line; experiment: Suppressing effect on production of cytokine (ELISA), IL-6; assay type: cell-based; conditions: Mus musculus, BV-2, level in medium, LPS + 100 uM of sample, 24 hours
Description: (§4) Effects of the 2-hydroxybenzoic acid derivatives on production of cytokine in BV2 cell line were evaluated. 24-well plate was inoculated with 1×10^6 cells of BV2 cell line, and treated with both LPS, inflammation-inducing material, and 100 uM of sample (the 2-hydroxybenzoic acid derivative or comparative drug), together. After 24 hours of incubation, culture medium was collected. The levels of cytokines, TNF-α and IL-6, in the medium were evaluated by ELISA method.

[5] = system: gastric mucous membrane; experiment: Safety test about induction of gastric mucous membrane damage; assay type: in vivo; conditions: oral, up to 1,000 mg/kg, aspirin as control
Description: Test samples were orally administered at different doses to evaluate the degree of the gastric mucous membrane damage. Aspirin was used as control.
FIG. 2 is results showing degrees of the gastric mucous membrane damage. Test samples were orally administered at indicated doses. […] Indomethacine, ibuprofen and celecoxib were used as control.
Conventional NSAIDs have side effects causing damages to the gastric mucous membrane. Therefore, it was evaluated whether compound 2 having anti-inflammatory effect causes the gastric damage or not. 30, 100 or 300 mg/kg of aspirin was orally administered as control.

[6] = system: TNF-α mRNA in AGS cell; experiment: Expression of TNF-α mRNA in ethanol-treated AGS cells (RT-PCR); assay type: cell-based, human; conditions: 1-100 uM, ethanol 24 hours
Description: FIG. 7 is a picture showing the expression degree of TNF-α mRNA. Cultured AGS cell was treated with 25 mM of alcohol for 24 hours, alone or with compound 2 having indicated concentration. Then, mRNA was extracted and evaluated by RT-PCR method.
As one marker of inflammation, the expression level of TNF-α mRNA was evaluated by RT-PCR method. Samples treated with ethanol for 24 hours were used.

[7] = system: brain-blood vessel barrier; experiment: Brain-blood vessel barrier protection in APP/PS1 mice (Evans blue); assay type: in vivo, mouse; conditions: chow from 2 to 5 month-old; compound 2 25 mg/kg/day, ibuprofen 62.5 mg/kg/day
Description: Damage of brain blood vessel is well known in Alzheimer's disease. […] of 2% Evans blue dye was administered into blood vessel of 5 month-old APP/PS1 dementia mouse.

[8] = system: TNF-α production in BV2 cell line; experiment: Suppressing effect on production of cytokine (ELISA), TNF-α; assay type: cell-based; conditions: Mus musculus, BV-2, level in medium, LPS + 100 uM of sample, 24 hours
Description: as §4

[9] = system: IL-1alpha in exudation of air pouch; experiment: Zymosan air pouch inflammation model, IL-1alpha (ELISA); assay type: in vivo; conditions: 3-300 mg/kg once oral 1 hour before zymosan, 4 hours later
Description: as §2, with “13” for “12”, “graphs” for “results”, “how much” for “efficacy of”, “decreases” for “through”, “level” for “levels”, “IL-1alpha” for “TNF-alpha”
as §3

[10] = system: TNF-α, IL-1β and IL-6 in brain; experiment: Cytokines in brain of APP/PS1 dementia mice (ELISA); assay type: in vivo, mouse; conditions: 25 mg/kg/day in chow for 7 months, vs APP/PS1 fed general chow
Description: FIG. 25 are graphs showing the levels of TNF-α, IL-1β or IL-6 in brain of 10.5 month-old APP/PS1 dementia mouse (Tg+). The levels were evaluated by ELISA method.
After administration of drug for 7 months, the levels of TNF-α, IL-1β and IL-6 were quantified by ELISA (mean±SEM, n=3-5). Significant difference from control (APP/PS1 mouse fed with general chow only), p<0.05 using one-way ANOVA according to Student-Neuman-Keuls' test.

[11] = system: IL-1beta gene expression in BV2 cell line; experiment: Suppressing effect on gene expression (RT-PCR), IL-1beta; assay type: cell-based; conditions: Mus musculus, BV-2, 24 h, gene expression vs LPS control, BV2, 24 hours
Description: as §1

## O=C(O)c1cc(NCCc2ccc(C(F)(F)F)cc2)ccc1O [compound 2, 2-hydroxy-5-[2-(4-trifluoromethyl-phenyl)-ethylamino]-benzoic acid]
[1]
  arthritic index: apparent reducing effect
[2]; Mus musculus, BV-2, 24 h
  inhibition at 100 µM: 63.2%
[2]
  % Inhibition (in 100 uM) TNF-alpha: 63.2%
[3]
  level of TNF-alpha: decreased the level of TNF-alpha more than control
[4]
  inhibition at 100 µM: 70.3%
[5]
  gastric mucous membrane damage: did not cause damage to the gastric mucous membrane
[5]; listed as Compound 2
  gastric mucous membrane damage: did not cause the gastric side effect
[6]
  expression of TNF-α mRNA: completely suppressed
[7]
  protecting effect on brain-blood vessel barrier: protecting effects on brain-blood vessel barrier were shown
[8]
  inhibition at 100 µM: 62.3%
[9]
  level of IL-1alpha: decreased in a dose-dependent manner
[10]
  levels of TNF-α, IL-1β and IL-6 in brain: significantly reduced the levels of TNF-α, IL-β and IL-6
[11]
  inhibition at 100 µM: 75.1%
